These results are taken from patent publication US20240092756A1, “METHODS AND COMPOSITION FOR KRAS MODIFICATIONS” (2692372 ONTARIO, INC., priority 2020, published 2024).

Structures are written as SMILES.

The target of test [1] is KRAS G12C Lite (SEQ ID NO:3) (Homo sapiens, UniProt P01116, C118S/C51S/C80S/G12C/S136P/S39C). In words: Intact mass analysis (LC-MS) of covalent modification, KRAS G12C Lite. It counts as binding. Set-up: key to KRAS Lite Modification: a: KRAS Lite modified. Conditions: intact mass spectrometry; covalent modification of KRAS G12C Lite. On the procedure: The covalent modification of the proteins with the compounds were evaluated using intact mass analysis by liquid chromatography-mass spectrometry instrument (LC-MS/MS).
The reaction solution (20 μL) was prepared in 96-well plate and contained the protein (2 μM), the compound (100 μM), HEPES buffer (20 mM, pH 8), 2% DMSO, 2% glycerol, and 150 mM NaCl. The reaction was allowed to proceed for 24 h at 25° C. The reaction solution (1 μL) was injected into the LC/MS/MS without any further sample preparation.
The LC-MS/MS instrument comprises of a Waters G2-XS quadrupole-time of flight (QTof) mass spectrometer and a Waters Acuity I-class Ultra-High Performance Liquid Chromatography (UPLC) system. The I-class UPLC system includes a binary solvent manager (BSM), and an Acquity sample manager (SM). The mobile phase consisted of: A) 0.1% (v/v) formic acid in MilliQ water; B) 0.1% (v/v) formic acid acetonitrile. Gradients were run over 5 min and proceeded as follows: A:B, 85:15, 0.0-0.7 min, 85:15→15:85, 0.7-1.5 min, 10:90, 1.5-4 min, 10:90→85:15, 4-4.5 min, 85:15, 4.5-5 min. The analytical column was a Waters BEH C4 column 1.7 μm (50×1 mm) column with pore sizes of 300 Å. The TOF MS data was collected in positive ion mode (m/z of 400-2000 Da) using MassLynx software (Waters).
The spectral deconvolution was performed using UNIFI software (Waters). The added mass of the protein upon covalent modification to cysteine residues were specified. Multiple modification of up to 8 cysteine was allowed. All the adducts with signal intensities of <2% of the base peak were ignored. The % modification was calculated as the adduct signal intensity over the total intensities of the protein peaks and the adducts.

The subject of test [2] is phospho-ERK1/2 in MIA PaCa-2 cells (express KRAS G12C). As to the kind of experiment: ERK1/2 phosphorylation in MIA PaCa-2 cells. It counts as cell-based, human. Further details: key: X: KRAS G12C bound and modulated in cells. How it is done: MIA PaCa-2 cells were cultured in Dulbecco's Modified Eagle's Medium (Wisent) supplemented with 10% FBS, 2.5% horse serum, and 1% penicillin/streptomycin. Cells were seeded in 6-well plates at 500,000 cells/well and incubated at 37° C., 5% CO2 for 16 hours. Cells were treated with the indicated concentrations of compound or DMSO alone and incubated at 37° C., 5% CO2 for 6 or 24 hours. Conditioned media was discarded, and adherent cells were washed with PBS before they were scraped. Cell suspensions were centrifugated at 2,000 RPM for 5 minutes at 4° C. and supernatants were discarded. Cell pellets were resuspended with 1×RIPA buffer (Millipore) and incubated on ice for 15 minutes. Protein lysates were extracted by centrifugating at 20,000 RPM for 20 minutes at 4° C. Proteins were separated and total KRas protein levels were quantified by Simple Western Immunoassay (ProteinSimple) using the 2-40 kDa Separation Module for Jess according to the manufacturer's protocol, using a protein concentration of 0.5 μg/μl and antibodies targeting KRas (clone #4F3, Sigma) and GAPDH (clone #14C10, Cell Signaling) diluted to 1:10 and 1:1600, respectively, where the latter was used as a loading control. A 3:1 ratio of rabbit to mouse HRP-conjugated secondary antibodies was used for detection. KRas protein levels were quantified relative to GAPDH loading levels and subsequently normalized to the DMSO control. Phosphorylated ERK1/2 levels were quantified by Simple Western Immunoassay (ProteinSimple) using the Protein Normalization Assay Module for Jess according to the manufacturer's protocol using a protein concentration of 0.5 μg/μl and an antibody targeting phosphor-ERK1/2 (clone #D13.14.4E, Cell Signalling) diluted to 1:10. Phosphorylated ERK1/2 levels were normalized to the Jess Protein Normalization Reagent loading control and subsequently to the DMSO control.
MIA PaCa-2 cells were cultured in Dulbecco's Modified Eagle's Medium (Wisent) supplemented with 10% FBS, 2.5% horse serum, and 1% penicillin/streptomycin. Cells were seeded in 96-well plates at a density of 25,000 cells/well and incubated at 37° C., 5% CO2 for 24 hours. The next day, cells were starved in cell culture media containing 1% FBS only at 37° C., 5% CO2 for 16 hours. Following starvation, serially-diluted compounds or DMSO alone were added to cells and incubated at 37° C., 5% CO2 for 1 or 3 hours. Prior to cell lysis, 25 ng/ml human epidermal growth factor (hEGF) (Sigma) was added to the cells and incubated at 37° C., 5% CO2 for 10 minutes. Conditioned media was discarded, and adherent cells lysed and basal ERK1/2 phosphorylation levels were measured using the Phospho-ERK (Thr202/Tyr204) Cellular HTRF kit (Perkin Elmer) according to the manufacturer's protocol. The fluorescent signal of the acceptor antibody at a wavelength of 665 nm was normalized to that of the donor antibody at 620 nm. HTRF ratios were plotted and relative IC50 values were obtained using Prism (GraphPad).

The next test has as its target KRAS G12C (Homo sapiens, UniProt P01116, G12C). As to the kind of experiment: SOS1-catalyzed KRAS coupled nucleotide exchange assay (Alpha technology). Type of test: biochemical. Further details: His; key: A: KRAS G12C bound and modulated. The conditions noted are these: inhibition of SOS1 mediated KRAS nucleotide exchange. On the procedure:
Method I: The inhibition of the SOS1-catalyzed nucleotide exchange activity of KRAS (e.g., KRAS G12C/C118A) was measured using Alpha (Amplified Luminescent Proximity Homogeneous Assay) technology. 20 nM GDP-bound human KRAS (G12C/C118A) protein was incubated with two-fold serially-diluted test compound or DMSO for 5 minutes at ambient temperature in reaction buffer (25 mM HEPES, pH 7.4; 10 mM MgCl2; 0.01% Triton X-100). For all subsequent steps, DTT was added to the reaction buffer at a final concentration of 1 mM. Next, GTP and SOS-1 were added in DTT-reaction buffer at final concentrations of 1.25 mM or 500 nM, respectively, and incubated at RT for 30 minutes. Finally, c-RAF RBD (50 nM final), Alpha glutathione donor beads (PerkinElmer; 20 μg/mL final), and AlphaLISAnickel chelate acceptor beads (PerkinElmer; 20 μg/mL final), all diluted in DTT-reaction buffer, were added. The reaction mixture was incubated at RT for 5 min, and then the plates were read on an EnVision® Multilabel Reader using the AlphaScreen protocol. Luminescence signal was measured at 570 nm following a 180 ms excitation at 680 nm. Signal intensity corresponded with the association of c-RAF RBD with GTP-bound KRAS G12C/C118A and was normalized to DMSO control.
Method II: Inhibition of the SOS1-catalyzed nucleotide exchange activity of KRAS^G12C was measured using Alpha technology (PerkinElmer). 50 nM GDP-bound human KRAS^G12C protein was incubated with serially-diluted compound or DMSO for 2 hrs at RT in RBD-RAS binding buffer (BPSBioscience). 1 mM GTP and 500 nM SOS-1 were added to the reaction mixture and incubated at RT for 30 min. GST-tagged RBD-cRAF was then added to the reaction mixture at a final concentration of 2.5 nM and incubated at RT for 30 min. Finally, Alpha Glutathione acceptor beads and Nickel chelate donor beads (PerkinElmer) were diluted to 1:500 and 1:250, respectively, and added to the reaction mixture. The final reaction was incubated at RT for 30 min. Plates were read on a TECAN SPARK® Multiplate Reader. The luminescence signal was measured at 615 nm following excitation at 680 nm. Signal intensity was normalized to DMSO control.

`COc1c(F)c(F)c(F)c(F)c1S(=O)(=O)Nc1nc(=O)n(-c2c(C)ccnc2C(C)C)c2nc(-c3c(O)cccc3F)c(F)cc12` (atropisomer, axis not shown) [Compound 9A, 2,3,4,5-tetrafluoro-N-(6-fluoro-7-(2-fluoro-6-hydroxyphenyl)-1-(2-isopropyl-4-methylpyridin-3-yl)-2-oxo-1,2-dihydropyrido[2,3-d]pyrimidin-4-yl)-6-methoxybenzenesulfonamide]: the “KRAS Lite Modification” value in test [1] is on record as “a”. For the same compound, in test [2], the “pERK - MIA PaCa-2 - (6 hours, 5 uM)” value is “X”. On to `Cc1ccnc(C(C)C)c1-n1c(=O)nc(NS(=O)(=O)c2c(F)c(F)c(F)c(F)c2OCF)c2cc(F)c(-c3c(O)cccc3F)nc21` (atropisomer, axis not shown) [Compound 10A, 2,3,4,5-tetrafluoro-N-(6-fluoro-7-(2-fluoro-6-hydroxyphenyl)-1-(2-isopropyl-4-methylpyridin-3-yl)-2-oxo-1,2-dihydropyrido[2,3-d]pyrimidin-4-yl)-6-(fluoromethoxy)benzenesulfonamide], for which, in test [2], the “pERK - MIA PaCa-2 - (6 hours, 5 uM)” value was “X”. For the same compound, on KRAS G12C, the “KRAS-SOS1 Nucleotide Exchange” value is on record as “A”. Turning to `C[S+]([O-])c1c(F)c(F)c(F)c(F)c1N1CCN(c2ncnc3c2CCN(c2cccc4cccc(Cl)c24)C3)CC1` (racemic) [Compound 43A, 7-(8-chloronaphthalen-1-yl)-4-(4-(2,3,4,5-tetrafluoro-6-(methylsulfinyl)phenyl)piperazin-1-yl)-5,6,7,8-tetrahydropyrido[3,4-d]pyrimidine], in test [1], the “KRAS Lite Modification” value is on record as “a”. As to `C[S+]([O-])c1c(F)c(F)c(F)c(F)c1N1CC(Nc2ncnc3cc(-c4ccccc4F)c(Cl)cc23)C1` (racemic) [Compound 48A, 6-chloro-7-(2-fluorophenyl)-N-(1-(2,3,4,5-tetrafluoro-6-(methylsulfinyl)phenyl)azetidin-3-yl)quinazolin-4-amine], in test [2], the “pERK - MIA PaCa-2 - (6 hours, 5 uM)” value was “X”. For the same compound, the “KRAS-SOS1 Nucleotide Exchange” value on KRAS G12C is “A”. As to `COc1c(F)c(F)c(F)c(F)c1S(=O)(=O)Nc1nc(=O)n(-c2c(C)ccnc2C(C)C)c2nc(Cl)c(F)cc12` [Compound 8A, N-(7-chloro-6-fluoro-1-(2-isopropyl-4-methylpyridin-3-yl)-2-oxo-1,2-dihydropyrido[2,3-d]pyrimidin-4-yl)-2,3,4,5-tetrafluoro-6-methoxybenzenesulfonamide], the “KRAS Lite Modification” value in test [1] is “a”. In the case of `O=S(=O)(NC1CN(c2ncnc3c2CCN(c2cccc4ccccc24)C3)C1)c1c(F)c(F)c(F)c(F)c1F` [Compound 20A, 2,3,4,5,6-pentafluoro-N-(1-(7-(naphthalen-1-yl)-5,6,7,8-tetrahydropyrido[3,4-d]pyrimidin-4-yl)azetidin-3-yl)benzenesulfonamide], the “pERK - MIA PaCa-2 - (6 hours, 5 uM)” value in test [2] is given as “X”. Besides, the “KRAS-SOS1 Nucleotide Exchange” value on KRAS G12C is “A”. On to `O=S(=O)(c1c(O)c(F)c(F)c(F)c1F)N1CCN(c2ncnc3c2CCN(c2cccc4ccccc24)C3)CC1` [Compound 31A, 2,3,4,5-tetrafluoro-6-((4-(7-(naphthalen-1-yl)-5,6,7,8-tetrahydropyrido[3,4-d]pyrimidin-4-yl)piperazin-1-yl)sulfonyl)phenol], for which the “KRAS Lite Modification” value in test [1] is “a”. Besides, on KRAS G12C, the “KRAS-SOS1 Nucleotide Exchange” value is given as “A”. For the compound `O=S(=O)(NC1CN(c2ncnc3c2CCN(c2cccc4ccccc24)C3)C1)c1c(F)c(F)c(F)c(F)c1C(F)(F)F` [Compound 35A, 2,3,4,5-tetrafluoro-N-(1-(7-(naphthalen-1-yl)-5,6,7,8-tetrahydropyrido[3,4-d]pyrimidin-4-yl)azetidin-3-yl)-6-(trifluoromethyl)benzenesulfonamide], in test [2], the “pERK - MIA PaCa-2 - (6 hours, 5 uM)” value was “X”. The “KRAS-SOS1 Nucleotide Exchange” value at KRAS G12C was “A”.

With `O=S(=O)(c1c(F)c(F)c(F)c(F)c1C(F)(F)F)N1CCN(c2ncnc3c2CCN(c2cc(O)cc4ccccc24)C3)CC1` [Compound 41A, 4-(4-(4-((2,3,4,5-tetrafluoro-6-(trifluoromethyl)phenyl)sulfonyl)piperazin-1-yl)-5,8-dihydropyrido[3,4-d]pyrimidin-7(6H)-yl)naphthalen-2-ol], the “pERK - MIA PaCa-2 - (6 hours, 5 uM)” value in test [2] is on record as “X”. For the same compound, on KRAS G12C, the “KRAS-SOS1 Nucleotide Exchange” value is “A”. On the same counts, the results for `Cc1cccc(C)c1-c1cc2nccc(N3CCN(c4c(F)c(F)c(F)c(F)c4S(C)(=O)=O)C[C@@H]3C)c2cc1Cl` [Compound 44A, (S)-6-chloro-7-(2,6-dimethylphenyl)-4-(2-methyl-4-(2,3,4,5-tetrafluoro-6-(methylsulfonyl)phenyl)piperazin-1-yl)quinoline] are “X” and “A”. In the case of `C[C@H]1CN(Cc2c(F)c(F)c(F)c(F)c2[S+](C)[O-])CCN1c1ncnc2cc(-c3ccccc3F)c(Cl)cc12` (stereo partly drawn) [Compound 46A, 6-chloro-7-(2-fluorophenyl)-4-((2S)-2-methyl-4-(2,3,4,5-tetrafluoro-6-(methylsulfinyl)benzyl)piperazin-1-yl)quinazoline], in test [2], the “pERK - MIA PaCa-2 - (6 hours, 5 uM)” value is recorded as “X”.
